Counter-ions that a name gives are not always drawn.
| Structure (SMILES) | melting point |
| --- | --- |
| Cl.O=S(=O)(c1ccc(F)c(F)c1)c1ccc2[nH]c3c(c2c1)CCNCC3 | 320 °C (dec.) |
| Cl.O=S(=O)(c1cc(F)cc(F)c1)c1ccc2[nH]c3c(c2c1)CCNCC3 | 313 to 315 °C (dec.) |
| Cl.Cn1c2c(c3cc(S(=O)(=O)c4cc(F)cc(F)c4)ccc31)CCNCC2 | 337 to 340 °C (dec.) |
| COc1cccc(S(=O)(=O)c2ccc3[nH]c4c(c3c2)CCNCC4)c1.Cl | 232 to 235 °C (dec.) |
| Cl.O=S(=O)(c1ccc(C(F)(F)F)cc1)c1ccc2[nH]c3c(c2c1)CCNCC3 | 278 to 279 °C (dec.) |
| O=S(=O)(c1ccc(F)cc1)c1ccc2[nH]c3c(c2c1)CCNCC3 [Example 2, 9-[(4-Fluorophenyl)sulfonyl]-1,2,3,4,5,6-hexahydroazepino[4,5-b]indole] | 168 °C (dec.) |
| Cc1ccc(S(=O)(=O)c2ccc3[nH]c4c(c3c2)CCNCC4)cc1 [Example 3, 9-[(4-Methylphenyl)sulfonyl]-1,2,3,4,5,6-hexahydroazepino[4,5-b]indole] | 125 °C (dec.) |
| COc1ccc(S(=O)(=O)c2ccc3[nH]c4c(c3c2)CCNCC4)cc1 [Example 4, 9-[(4-Methoxyphenyl)sulfonyl]-1,2,3,4,5,6-hexahydroazepino[4,5-b]indole] | 139 °C (dec.) |
| O=S(=O)(c1cccc(F)c1)c1ccc2[nH]c3c(c2c1)CCNCC3 [Example 5, 9-[(3-Fluorophenyl)sulfonyl]-1,2,3,4,5,6-hexahydroazepino[4,5-b]indole] | 153 to 156 °C |
| CC(C)N1CCc2c(n(C)c3ccc(S(=O)(=O)c4ccc(F)cc4)cc23)CC1 [Example 20, 9-[(4-fluorophenyl)sulfonyl]-3-isopropyl-6-methyl-1,2,3,4,5,6-hexahydroazepino[4,5-b]indole] | 282 to 283 °C (dec.) |

Further lines, results first:

| melting point | Structure (SMILES) |
| --- | --- |
| 290 to 291.5 °C | Cl.O=S(=O)(c1ccccc1)c1ccc2[nH]c3c(c2c1)CCNCC3 |
| > 300 °C | Cl.Cn1c2c(c3cc(S(=O)(=O)c4ccccc4)ccc31)CCNCC2 |
| 150 °C (dec.) | CN1CCc2[nH]c3ccc(S(=O)(=O)c4ccccc4)cc3c2CC1 |
| 227 to 233 °C (dec.) | CCn1c2c(c3cc(S(=O)(=O)c4ccc(F)cc4)ccc31)CCNCC2.Cl |
| 285 to 287 °C (dec.) | Cn1c2c(c3cc(S(=O)(=O)c4ccc(OCCO)cc4)ccc31)CCNCC2 (as salt: hydrochloride) [Example 17, 9-[(4-(2-Hydroxyethoxy)phenyl)sulfonyl]-6-methyl-1,2,3,4,5,6-hexahydroazepino[4,5-b]indole hydrochloride] |
| 224 °C (dec.) | CCn1c2c(c3cc(S(=O)(=O)c4ccccc4)ccc31)CCNCC2 [Example 8, 6-Ethyl-9-(phenylsulfonyl)-1,2,3,4,5,6-hexahydroazepino[4,5-b]indole] |
| 283 to 286 °C | CN1CCc2c(n(C)c3ccc(S(=O)(=O)c4ccccc4)cc23)CC1 [Example 18, 3,6-Dimethyl-9-(phenylsulfonyl)-1,2,3,4,5,6-hexahydroazepino[4,5-b]indole] |
